Data from patent US10736900B2, “Combinations of an FGFR inhibitor and an IGF1R inhibitor” (ASTEX THERAPEUTICS LTD, priority 2014, dated 2020).

Assays:
[1] = tested on: most sensitive cancer cell lines; assay: Cell based proliferation assay (alamar blue assay), cancer cell lines; conditions: read-out: IC50 in the most sensitive cancer cell lines
Protocol: Cells were seeded in 180 μl of medium at optimized cell densities in black 96 well plates with clear flat bottom. The outer wells were filled with 180 μl of medium. Cells were incubated for 24 hours at 37° C. and 5% CO2.
Compound/medium plates were placed on a shaker for 10 minutes and then 20 μl of compound in medium was added to the cells (10× dilution). Cells were incubated at 37° C. and 5% CO2 for 4 days until alamarBlue® readout.
After 4 days of incubation with compound: Add 40 μl of alamarBlue® ready to use mix to each well. Incubate plates at 37° C. and 5% CO2. Measure plates after 4 or 6 hours of incubation (depends on cell line).

DMS114 cells = assay: Incucyte proliferation (% confluence over time), DMS114 cells, long-term treatment; type: cell-based; conditions: compound A 1 microM, BMS-754807 300 nM, GSK1838705A 1 microM, each alone
Protocol: The insensitive cells were isolated and profiled with the aim to determine the active signaling pathways that act as drivers for their survival and/or proliferation. Therefore, DMS114 cells, a small cell lung cancer cell line with FGFR1 amplification were plated onto 10 cm culture plates and placed in an incubator at 37° C., 5% CO2. […] In the case of the parental cells with or without DMSO control, when the cells reached the confluence close to 100% they were trypsinized and re-plated back on the plate. […] After about 2-3 weeks from the initial treatment, cells were taken out of the plate by trypsinization and passaged on new plate for further expanding.
There were also treatments of the cells with single agents with or without DMSO or treatments with DMSO alone to serve as vehicle control. The proliferation of the cells was followed using the Incucyt machine, measuring the % of confluence of the cells over time.

resistant DMS114 cells [2] = assay: Incucyte proliferation, resistant DMS114 cells kept in compound A, long-term treatment; type: cell-based; conditions: resistant DMS114 cells kept in compound A 1 microM; GSK1838705A 1 microM; over 33 days
From the text: An additional experiment was run wherein the resistant DMS114 cells were exposed to 1 microM of GSK1838705A and the growth/proliferation of the cells was monitored on the Incucyte machine. Cells were kept under this condition for over 33 days, and the medium was replaced twice a week.

[3] = tested on: DMS114 cells, a small cell lung cancer cell line with FGFR1 amplification; assay: Alamar blue proliferation assay, parental DMS114 cells; type: cell-based; conditions: Homo sapiens, DMS-114, 96 h, Parental cells (with DMSO control), 4 days
resistant DMS114 cells [4] = assay: Alamar blue proliferation assay, DMS114 cells resistant to compound A; type: cell-based

SMILES | IC50 [1] | proliferation (% confluence over time), single agent (DMS114 cells) | proliferation of resistant cells, long term treatment (resistant DMS114 cells [2]) | IC50 [3] | IC50 (resistant DMS114 cells [4]; Homo sapiens, DMS-114, 96 h, Resistant cells, 4 days) | inhibition of proliferation of resistant DMS114 cells (resistant DMS114 cells [4]; resistant DMS114 cells)
COc1cc(OC)c(F)c(N(Cc2ncc[nH]2)c2ccc3ncc(-c4cnn(C)c4)nc3n2)c1 [compound B, N-(2-fluoro-3,5-dimethoxyphenyl)-N-(1H-imidazol-2-ylmethyl)-3-(1-methyl-1H-pyrazol-4-yl)pyrido[2,3-b]pyrazin-6-amine] | < 10 nM |  |  |  |  | 
C[C@@]1(C(=O)Nc2ccc(F)nc2)CCCN1c1nc(Nc2cc(C3CC3)[nH]n2)c2cccn2n1 [BMS-754807] |  | did not impact the proliferation |  |  |  | 
CNC(=O)c1c(F)cccc1Nc1nc(Nc2cc3c(cc2OC)CCN3C(=O)CN(C)C)nc2[nH]ccc12 [GSK1838705A] |  | did not impact the proliferation | completely blocked and over the long term treatment (>30 days) did not gain ability to grow out | > 10000 nM | 2000 nM | strongly inhibited the proliferation of the resistant DMS114 cells
